Laboratory results published in patent publication US8859496B2, “Pharmaceutical composition using connective-tissue growth factor” (Postech Academy-Industry Foundation, priority 2010, dated 2014).
No end group written: not given here.

Assays:
FPRL1 = target: T1, FPRL1 (Homo sapiens, UniProt P25090); experiment: Intracellular Ca2+ measurement (fluo-3-AM) in FPRL1/RBL, vector/RBL or FPR/RBL cells; format: cell-based
T1 construct: expressed in transfected cells; host or cells: rat basophil leukemia RBL-2H3 cells, kept under G418
T1 sequence (P25090 1-351): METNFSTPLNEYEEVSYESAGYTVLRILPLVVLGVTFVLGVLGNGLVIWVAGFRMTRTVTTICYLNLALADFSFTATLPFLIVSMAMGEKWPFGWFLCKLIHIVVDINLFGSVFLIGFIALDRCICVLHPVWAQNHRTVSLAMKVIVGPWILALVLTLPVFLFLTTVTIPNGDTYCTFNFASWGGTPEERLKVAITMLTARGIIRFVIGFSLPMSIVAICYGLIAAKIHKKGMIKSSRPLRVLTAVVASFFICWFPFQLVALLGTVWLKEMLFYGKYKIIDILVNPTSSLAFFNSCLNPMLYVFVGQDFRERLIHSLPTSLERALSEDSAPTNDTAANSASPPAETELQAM
Description: FPRL1/RBL, vector/RBL or FPR/RBL cells were cultured in a fluo-3-AM working solution containing 0.03% (w/v) plutonic F-127 (Molecular Probes) at 37° C. for 1 hour so that the final concentration of fluo-3-AM became 20 uM/L. After the culturing, fluo-3-AM fluorescence occurred at 488 nm with high-power Ar^+ laser in the cells, and the emission band was measured at 530 nm with photomultiplier. Fluorescence signal was detected using confocal laser scanning system (LSM 510 Meta; Carl Zeiss, Jena, Germany) equipped with Nikon E-600 Eclipse microscope. Fluorescence intensities before adding CTGF (F0) and after adding CTGF (F) were measured. Change in the intracelullar Ca^2+ concentration [Ca^2+]i was indicated by F/F0 ratio. From each cell, 50 to 120 images were scanned.
Since activation of FPRL1 increases intracellular Ca^2+ concentration, the inventors confirmed whether CTGF linker polypeptide activates FPRL1 to finally increase intracellular Ca^2+ concentration by the <Experiment method 8>, and the results are shown in FIG. 12.

[1] = tested on: CAM (chorioallantoic membrane); experiment: In vivo CAM (chorioallantoic membrane) angiogenesis analysis
Description: In vivo CAM analysis was conducted according to a previously known method (Lee, M.-S. et al. Angiogenic Activity of Pyruvic Acid in in Vivo and in Vitro Angiogenesis Models. Cancer Res 61, 3290-3293, 2001).
Fertilized eggs were cultured in an egg breeder set to fixed moisture at 37° C. 3 days after the culture, to take off expressed CAM from the shell, about 2 ml of egg albumin was taken out with 18-gague subcutaneous needle. After additionally culturing for 6 days, thermanox coverslips (Nunc) containing the sample was dried in the air, and applied to the CAM surface to test the activity of angiogenesis by linker polypeptide or rhCTGF. After 3 days, 1-2 ml of 10% (w/v) Intralipose was injected into chorioallantois, and observed with microscope.
And, it was confirmed by the <Experiment method 10> that in case HUVECs are treated with FPRL1 antagonist (10 ug/CAM) in vivo, angiogenesis activity of VEGF-A (25 ng/CAM) is inhibited, and the results are shown in FIG. 28.

HUVECs [2] = experiment: HUVEC wound migration assay; format: cell-based, human
Description: Specifically, HUVECs inoculated on a 60-mm culture dish to confluence were wounded with the end of a pipette, and treated with linker polypeptide (10^−1˜10^2 nM) or recombinant CTGF (recombinant human CTGF, rhCTGF; BioVendor R&D, NC, USA) (10^1 or 10^2 nM) in Medium 199 to which 1% serum and 1 mM thymidine were added. After culturing 16 hours, the number of cells that migrated over a reference line was counted to quantify the degree of migration, and the cells were photographed with 50× magnification.
First, 20 ng/ml of VEGF-A was administered to HUVECs, the degree of cell proliferation, cell migration, or tube formation was confirmed by the <Experiment method 9>, and the results are shown in FIGS. 22 to 24. At this time, FPRL1 antagonist WRW4 was additionally added.

HUVECs [3] = experiment: ERK phosphorylation in HUVECs (immunoblot); format: cell-based, human
Description: Vector/RBL cells, FPR/RBL cells, FPRL1/RBL cells, and HUVECs were cultured to confluence, and serum-starved. The stimulated cells (1×10^5 cells) were washed with PBS twice, dissolved in 1 ml of sample buffer (50 mM Tris-HCl, 100 mM NaCl, 0.1% SDS, 1% Nonidet P-40, 50 mM NaF, 1 mM Na3VO4, 1 μg/ml aprotinin, 1 μg/ml pepstatin, and 1 μg/ml leupeptin), heated at 95° C. for 30 seconds, separated with SDS-PAGE, and then, transferred to a nitrocellulose film. Immunoblot was conducted using anti-phospho-ERK (extracellular signal regulated kinase)1/2 (Thr^202/Tyr^204)(Cell Signaling Technology, Beverly, Mass., USA), anti-ERK1/2 (Cell Signaling Technology, Beverly, Mass., USA), anti-CTGF (Abcam, Cambridge, Mass., USA), anti-Actin (Sigma, St. Louis, Mo., USA), or anti-Flag (Sigma, St. Louis, Mo., USA) antibody, and then, the film was visualized with a chemiluminescence substrate (Amersham Pharmacia).
Meanwhile, HUVECs were treated with the CTGF linker polypeptide or rhCTGF at various concentrations for 5 minutes, cell lysate was obtained, and then, immuboblot was conducted with anti-phospho ERK1/2 antibody, and the results are shown in FIG. 14.

Substance	effect of antagonist on intracellular Ca2+ increase by CTGF linker polypeptide (FPRL1; WRW4 10 uM)	effect of antagonist on CAM angiogenesis induced by VEGF-A ([1]; FPRL1 antagonist 10 ug/CAM, VEGF-A 25 ng/CAM)	effect of antagonist on CAM blood vessel formation induced by CTGF linker polypeptide ([1]; WRW4 10 uM)	effect of antagonist on HUVEC migration induced by VEGF-A (HUVECs [2]; VEGF-A 20 ng/ml, WRW4 10 uM)	effect of antagonist on HUVEC migration induced by CTGF linker polypeptide (HUVECs [2]; WRW4 10 uM)	effect of antagonist on ERK phosphorylation in HUVECs (HUVECs [3]; WRW4 10 uM)	Ca2+ concentration, concentration dependence (FPRL1; FPRL1/RBL cells)	Ca2+ increasing activity compared to rhCTGF and WKYMVm (FPRL1; FPRL1/RBL cells)	Ca2+ concentration increase, cell specificity (FPRL1; confocal microscope, FPRL1/RBL, vector/RBL or FPR/RBL cells)	angiogenesis in vivo (CAM) ([1]; sample on coverslip on CAM, 3 days)	migration of HUVECs (HUVECs [2]; linker polypeptide 10^-1 to 10^2 nM, 16 hours, compared to recombinant CTGF)	ERK phosphorylation in HUVECs (HUVECs [3]; various concentrations, 5 minutes)
WRWWWW (FPRL1 antagonist) [WRW4]	the degree of intracellular Ca^2+ concentration increase by CTGF linker polypeptide decreases	strongly inhibits angiogenesis induced by VEGF-A	the blood vessel formation is not induced	the cell migration is not induced	the cell migration is not induced	ERK phosphorylation is inhibited	–	–	–	–	–	–
EWVCDEPKDQTVVGPALAAYRLEDTFGPDPTMIRANCLV (EWVCDEPKDQTVVGPALAAYRLEDTFGPDPTMIRANCLV-NH2; cysteine pairing not given here) [CTGF linker polypeptide]	–	–	–	–	–	–	increases dependently upon the concentration of CTGF linker polypeptide	more effective than rhCTGF and is similar to positive control of FPRL1 agonist WKYMVm	increased only in FPRL1/RBL cells	very strongly induces angiogenesis also in vivo in a concentration-dependent manner	induces migration of HUVECs in a concentration-dependent manner more effectively than recombinant CTGF	ERK phosphorylation is effectively induced
